Laboratory results from PMC12010006, “Subnanomolar MAS-related G protein-coupled receptor-X2/B2 antagonists with efficacy in human mast cells and disease models” (Signal Transduction and Targeted Therapy, 2025).

Target: T1, MRGPRX2 (Homo sapiens, UniProt Q96LB1)
T1 sequence (Q96LB1 1-330): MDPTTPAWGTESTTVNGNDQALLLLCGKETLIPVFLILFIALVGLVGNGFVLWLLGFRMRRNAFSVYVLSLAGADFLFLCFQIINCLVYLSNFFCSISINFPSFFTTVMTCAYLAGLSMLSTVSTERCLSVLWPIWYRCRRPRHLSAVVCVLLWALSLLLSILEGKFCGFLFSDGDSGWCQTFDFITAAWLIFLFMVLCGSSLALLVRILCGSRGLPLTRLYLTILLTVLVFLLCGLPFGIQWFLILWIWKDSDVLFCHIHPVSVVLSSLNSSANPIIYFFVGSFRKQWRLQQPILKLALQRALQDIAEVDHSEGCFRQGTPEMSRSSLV
Test: Ca2+ mobilization assay, LN229 cells overexpressing MRGPRX2
Assay type: cell-based
Set-up: expressed in transfected cells; host or cells: LN229 human glioblastoma cells; plasmid pLXSN-MRGPRX2 (Addgene #213960)
Details: for Ki: versus CST-14 (EC80 800 nM, EC50 452 nM), Cheng-Prusoff, read-out: Ca2+ assay Ki ± SEM
Description: Glioblastoma LN229-MRGPRX2 stably expressing MRGPRX2 (produced by retroviral transfection) were seeded into black sterile 96-well microplates at a density of 5 × 10^4 cells/well in 200 µL of DMEM/F12-Nut Mix medium, supplemented with 10% FCS, 100 U/mL of penicillin 100 µg/mL of streptomycin, and 200 µg/mL of G418 and incubated for 18–22 h.
The next day Fluo-4 AM Solution (1 mM) (Thermo Fisher Scientific) was prepared and used to prepare cell loading dye solution consisting of 4970 µL of Hank’s Buffered Saline Solution (HBSS) buffer, 15 µL of 20% Pluronic-F and 15 µL of 1 mM Fluo-4 AM. Next, the cell medium was removed and exchanged for 40 µL of dye solution per well (final concentration of Fluo-4 AM: 3 µM). The cell plate was incubated for 60 min in the dark at room temperature, then the dye solution was removed and replaced by 189 µL HBSS. Subsequently, 1 µL of antagonist diluted in DMSO was added and incubated for 30 min at room temperature and in the dark (final DMSO concentration 0.5%, v/v). CST-14 or another agonist prepared in HBSS as well as carbachol (final concentration 100 µM) were pipetted (10 µL) using a FlexStation® 3 Multi-Mode Microplate Reader. For the determination of baseline fluorescence, HBSS buffer containing solvent of the investigated compound was used. Fluorescence was measured for 120 intervals of 1 s (number of flashes: 10) at a wavelength of 525 nm (excitation 485 nm) using the SoftMax® Pro5.1 Microplate Data Acquisition & Analysis Software. Three independent experiments were performed in duplicates. Measurements are provided in relative fluorescence units and normalized to the maximal effect of CST-14.

| fold higher potency compared to the 8-monofluorinated derivative (30) | fold increase in potency compared to 10 [fold] | fold increase in potency compared to hit compound 1 [fold] | MRGPRX2 antagonistic potency in Ca2+ assay, in words (versus CST-14) | Ki [nM] | agonistic activity in Ca2+ assays | SMILES |
| --- | --- | --- | --- | --- | --- | --- |
| about 4 fold | 7 | 1870 | subnanomolar potencies | 0.142 | – | CCc1c(C(C)C)[nH]c2nc3cc(F)c(F)cc3n2c1=O [Compound 24, 3-ethyl-7,8-difluoro-2-isopropylbenzo[4,5]imidazo [1,2-a] pyrimidin-4(1H)-one] |
| – | – | – | – | 246 ± 125 | did not show any agonistic activity | CCCc1c(C)[nH]c2nc3ccccc3n2c1=O [Compound 1, 2-methyl-3-propylbenzo[4,5]imidazo[1,2-a]pyrimidin-4(1H)-one] |
